Measurements reported in ChEMBL document CHEMBL1201862, “PubChem BioAssay data set” (2004).
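Cultured in 96-well plates, cells were exposed to test compound for 48 hours across five concentrations. GI50 marks 50% less growth.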 Active and inactive are the calls of the source. No stated cut-off is given here; in the data, active = GI50 up to about 1.1 µM and inactive = higher.

What was measured:
Assay in all cases: NCI anticancer screen, dose series, 48 h
[1] = tested on: 786-0
[2] = tested on: ACHN
[3] = tested on: DU-145
[4] = tested on: HL-60
[5] = tested on: HOP-62
[6] = tested on: KM12
[7] = tested on: M14
[8] = tested on: MDA-N
[9] = tested on: Malme-3M
[10] = tested on: NCI/ADR-RES
[11] = tested on: OVCAR-4
[12] = tested on: OVCAR-5
[13] = tested on: PC-3
[14] = tested on: SF-539
[15] = tested on: SK-MEL-28
[16] = tested on: SK-MEL-2
[17] = tested on: TK-10
[18] = tested on: U-251
[19] = tested on: UO-31
[20] = tested on: SK-OV-3

SMILES	GI50 [1]	GI50 [2]	GI50 [3]	GI50 [4]	GI50 [5]	GI50 [6]	GI50 [7]	GI50 [8]	GI50 [9]	GI50 [10]	GI50 [11]	GI50 [12]	GI50 [13]	GI50 [14]	GI50 [15]	GI50 [16]	GI50 [17]	GI50 [18]	GI50 [19]	GI50 [20]
CCOC(=O)CCCc1cc(O)c2c(C)c3[nH]c4ccc(Cl)cc4c3c(C)c2n1	20.4 µM (inactive)	24.3 µM (inactive)	23.8 µM (inactive)	24 µM (inactive)	20.7 µM (inactive)	37.2 µM (inactive)	34.9 µM (inactive)	34.9 µM (inactive)	24 µM (inactive)	23.4 µM (inactive)	23.7 µM (inactive)	82.6 µM (inactive)	28.8 µM (inactive)	14.6 µM (inactive)	28.3 µM (inactive)	26.9 µM (inactive)	21.1 µM (inactive)	22.9 µM (inactive)	20.1 µM (inactive)	–
CCOC(=O)c1ccc(N2C(=S)N(C(=O)c3ccccc3)C(=N/c3ccccc3)/C2=N\c2ccccc2)cc1	42.2 µM (inactive)	37.8 µM (inactive)	92.9 µM (inactive)	–	19.7 µM (inactive)	> 100 µM (inactive)	27.2 µM (inactive)	26.5 µM (inactive)	53.5 µM (inactive)	> 100 µM (inactive)	–	> 100 µM (inactive)	59 µM (inactive)	63.2 µM (inactive)	> 100 µM (inactive)	40.6 µM (inactive)	62.1 µM (inactive)	25.5 µM (inactive)	56.9 µM (inactive)	32 µM (inactive)
CS(=O)(=O)Nc1ccc2c(c1)oc(=O)c1ccccc12	> 100 µM (inactive)	> 100 µM (inactive)	> 100 µM (inactive)	> 100 µM (inactive)	> 100 µM (inactive)	> 100 µM (inactive)	> 100 µM (inactive)	> 100 µM (inactive)	> 100 µM (inactive)	> 100 µM (inactive)	> 100 µM (inactive)	> 100 µM (inactive)	> 100 µM (inactive)	> 100 µM (inactive)	> 100 µM (inactive)	> 100 µM (inactive)	–	> 100 µM (inactive)	38.5 µM (inactive)	–
CN1CCN(c2cc3nc4cc(O)cc(O)c4c(O)c3cc2N)CC1	38.7 µM (inactive)	27.5 µM (inactive)	46.5 µM (inactive)	20.1 µM (inactive)	33.6 µM (inactive)	27.4 µM (inactive)	37.1 µM (inactive)	23.4 µM (inactive)	24.6 µM (inactive)	57.5 µM (inactive)	27.4 µM (inactive)	23.9 µM (inactive)	18.1 µM (inactive)	0.608 µM (active)	27.2 µM (inactive)	19.4 µM (inactive)	30.7 µM (inactive)	17.6 µM (inactive)	19.7 µM (inactive)	–
CN(C)CCNC(=O)c1cccc2nc3cccc(F)c3nc12	0.653 µM (active)	0.484 µM (active)	2.47 µM (inactive)	1.48 µM (inactive)	1.97 µM (inactive)	1.42 µM (inactive)	2.01 µM (inactive)	1.46 µM (inactive)	2.04 µM (inactive)	1.39 µM (inactive)	1.47 µM (inactive)	2.6 µM (inactive)	1.38 µM (inactive)	1.86 µM (inactive)	3.01 µM (inactive)	2.13 µM (inactive)	2 µM (inactive)	1.38 µM (inactive)	0.883 µM (active)	–
Oc1ccc2ccccc2c1CN(Cc1c(O)ccc2ccccc12)C1CCCCC1	15.6 µM (inactive)	18.3 µM (inactive)	20.3 µM (inactive)	–	29.7 µM (inactive)	28.2 µM (inactive)	15.2 µM (inactive)	15.4 µM (inactive)	15.8 µM (inactive)	23.5 µM (inactive)	18.7 µM (inactive)	41.9 µM (inactive)	17 µM (inactive)	16 µM (inactive)	22.8 µM (inactive)	23.3 µM (inactive)	17.3 µM (inactive)	20.2 µM (inactive)	17.1 µM (inactive)	42 µM (inactive)
Cc1nc2ccc(/N=N/N(C)C)cc2[nH]1	> 100 µM (inactive)	> 100 µM (inactive)	> 100 µM (inactive)	–	> 100 µM (inactive)	> 100 µM (inactive)	> 100 µM (inactive)	> 100 µM (inactive)	> 100 µM (inactive)	> 100 µM (inactive)	> 100 µM (inactive)	> 100 µM (inactive)	> 100 µM (inactive)	–	> 100 µM (inactive)	> 100 µM (inactive)	> 100 µM (inactive)	> 100 µM (inactive)	> 100 µM (inactive)	> 100 µM (inactive)
O=C(NCCCCCCCCNC(=O)Nc1cccc2ccccc12)Nc1cccc2ccccc12	10.1 µM (inactive)	85.9 µM (inactive)	> 100 µM (inactive)	33.4 µM (inactive)	12.8 µM (inactive)	> 100 µM (inactive)	> 100 µM (inactive)	20.3 µM (inactive)	> 100 µM (inactive)	46.7 µM (inactive)	1.45 µM (inactive)	41.7 µM (inactive)	72.1 µM (inactive)	10.8 µM (inactive)	57.7 µM (inactive)	83.9 µM (inactive)	43.7 µM (inactive)	2.76 µM (inactive)	21.4 µM (inactive)	–
NCC(=O)NC1(c2cc3ccccc3s2)CCCCC1	41.4 µM (inactive)	23.3 µM (inactive)	> 100 µM (inactive)	18.5 µM (inactive)	> 100 µM (inactive)	40.6 µM (inactive)	17.6 µM (inactive)	38.8 µM (inactive)	17.6 µM (inactive)	48.5 µM (inactive)	50.8 µM (inactive)	40.5 µM (inactive)	–	50.9 µM (inactive)	19 µM (inactive)	–	36 µM (inactive)	–	45.9 µM (inactive)	67.6 µM (inactive)
COc1ccc(O[C@H](COCc2ccccc2)C[C@@H]2COC(C)(C)O2)cc1	> 100 µM (inactive)	> 100 µM (inactive)	> 100 µM (inactive)	–	> 100 µM (inactive)	> 100 µM (inactive)	> 100 µM (inactive)	> 100 µM (inactive)	> 100 µM (inactive)	> 100 µM (inactive)	> 100 µM (inactive)	> 100 µM (inactive)	> 100 µM (inactive)	> 100 µM (inactive)	> 100 µM (inactive)	> 100 µM (inactive)	> 100 µM (inactive)	> 100 µM (inactive)	> 100 µM (inactive)	> 100 µM (inactive)
COC(=O)C12CCC(C(=O)OC)(Cc3c(c4ccccc4n3S(=O)(=O)c3ccccc3)C1)C2=O (configuration not stated)	> 42.1 µM (inactive)	> 64.1 µM (inactive)	> 100 µM (inactive)	–	> 100 µM (inactive)	> 100 µM (inactive)	> 63.8 µM (inactive)	> 100 µM (inactive)	36.1 µM (inactive)	16.7 µM (inactive)	> 61.7 µM (inactive)	> 32.2 µM (inactive)	> 63.5 µM (inactive)	> 40.6 µM (inactive)	> 100 µM (inactive)	> 100 µM (inactive)	> 56.2 µM (inactive)	> 100 µM (inactive)	> 100 µM (inactive)	> 70.8 µM (inactive)
COc1cc(C2SCC(=O)N2c2ccc(Cl)cc2)cc(OC)c1OC (configuration not stated)	> 58.5 µM (inactive)	–	–	2.46 µM (inactive)	21.1 µM (inactive)	3.38 µM (inactive)	0.266 µM (active)	3.05 µM (inactive)	> 100 µM (inactive)	20.4 µM (inactive)	5.81 µM (inactive)	0.252 µM (active)	46.2 µM (inactive)	> 100 µM (inactive)	> 72.9 µM (inactive)	8.51 µM (inactive)	> 100 µM (inactive)	> 79.4 µM (inactive)	1.19 µM (inactive)	> 94.6 µM (inactive)
O=C(/C=C/C=C/c1ccccc1)c1ccc2c(c1)CCCC2	39 µM (inactive)	70.8 µM (inactive)	25.5 µM (inactive)	–	91.6 µM (inactive)	28.8 µM (inactive)	94.2 µM (inactive)	19.6 µM (inactive)	–	25.8 µM (inactive)	43.7 µM (inactive)	> 100 µM (inactive)	36.5 µM (inactive)	54.5 µM (inactive)	> 100 µM (inactive)	83.2 µM (inactive)	73.6 µM (inactive)	35 µM (inactive)	61 µM (inactive)	72.9 µM (inactive)
Cc1ccc(N(C)S(=O)(=O)c2ccccc2[N+](=O)[O-])cc1	> 100 µM (inactive)	58.9 µM (inactive)	98.4 µM (inactive)	> 100 µM (inactive)	49.1 µM (inactive)	29.4 µM (inactive)	21.6 µM (inactive)	34.5 µM (inactive)	33.2 µM (inactive)	37.5 µM (inactive)	41.7 µM (inactive)	65.5 µM (inactive)	19 µM (inactive)	40.1 µM (inactive)	44.9 µM (inactive)	30.8 µM (inactive)	> 100 µM (inactive)	49.2 µM (inactive)	40.5 µM (inactive)	–
O=[N+]([O-])/C(C(Cl)=C(Cl)Cl)=C(\Nc1cccc2ccccc12)n1nnc2ccccc21	> 100 µM (inactive)	> 100 µM (inactive)	> 100 µM (inactive)	–	32.4 µM (inactive)	30.7 µM (inactive)	> 100 µM (inactive)	> 100 µM (inactive)	68.5 µM (inactive)	78.3 µM (inactive)	33.3 µM (inactive)	42 µM (inactive)	47.1 µM (inactive)	> 100 µM (inactive)	> 100 µM (inactive)	38.4 µM (inactive)	–	33 µM (inactive)	98.4 µM (inactive)	68.7 µM (inactive)
